Measured values as given in ChEMBL document CHEMBL1137374, “Discovery of 6-N,N-bis(2,2,2-trifluoroethyl)amino- 4-trifluoromethylquinolin-2(1H)-one as a novel selective androgen receptor modulator” (J Med Chem, 2006).
Calls of active or inactive are those of the source. The rule behind the calls is not given here.

Key:
Androgen receptor [1] = target: T1, Androgen receptor (Homo sapiens, UniProt P10275)
T1 sequence (P10275 whole entry): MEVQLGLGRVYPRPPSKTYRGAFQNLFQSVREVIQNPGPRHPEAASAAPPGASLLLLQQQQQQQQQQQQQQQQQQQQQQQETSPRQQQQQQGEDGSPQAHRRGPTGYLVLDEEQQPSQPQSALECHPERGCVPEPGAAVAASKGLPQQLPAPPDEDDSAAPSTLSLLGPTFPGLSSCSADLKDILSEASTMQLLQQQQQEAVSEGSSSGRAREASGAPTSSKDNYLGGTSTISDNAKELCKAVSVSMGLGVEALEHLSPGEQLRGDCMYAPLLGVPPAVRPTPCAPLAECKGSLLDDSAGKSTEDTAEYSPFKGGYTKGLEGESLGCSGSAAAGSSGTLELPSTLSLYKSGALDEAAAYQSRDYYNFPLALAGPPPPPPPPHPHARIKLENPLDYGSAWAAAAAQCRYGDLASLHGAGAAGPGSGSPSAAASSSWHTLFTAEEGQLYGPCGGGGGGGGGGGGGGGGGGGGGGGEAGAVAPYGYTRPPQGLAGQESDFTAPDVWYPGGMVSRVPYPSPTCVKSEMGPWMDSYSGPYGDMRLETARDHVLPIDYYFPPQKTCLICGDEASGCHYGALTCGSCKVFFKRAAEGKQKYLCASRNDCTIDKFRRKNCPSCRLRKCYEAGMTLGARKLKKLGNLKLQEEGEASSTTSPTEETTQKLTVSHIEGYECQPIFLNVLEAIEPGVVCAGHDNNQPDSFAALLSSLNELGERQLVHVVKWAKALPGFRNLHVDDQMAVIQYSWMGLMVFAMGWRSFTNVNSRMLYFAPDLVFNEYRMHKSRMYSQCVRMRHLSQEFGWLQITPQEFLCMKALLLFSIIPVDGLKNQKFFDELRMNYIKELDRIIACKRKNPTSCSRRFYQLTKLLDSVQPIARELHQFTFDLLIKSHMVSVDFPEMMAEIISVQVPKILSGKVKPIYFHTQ
Description: Displacement of [3H]DHT from human androgen receptor expressed in MDA-MB-453 cells by whole cell receptor binding assay

Androgen receptor [2] = target: T1, Androgen receptor; remark: listed apart in the source
Description: Antagonist activity against human androgen receptor in CV1 cells measured as inhibition of DHT-stimulated luciferase reporter gene activity by cotransfection assay

Androgen receptor [3] = target: T1, Androgen receptor; remark: listed apart in the source
Description: Agonist activity at human androgen receptor in CV1 cells measured as stimulation of luciferase reporter gene activity by cotransfection assay

Rattus norvegicus [4] = organism: Rattus norvegicus; experiment: Anabolic activity in orchidectomized rat measured as increase in levator ani muscle weight relative to intact rat; assay type: functional
Rattus norvegicus [5] = experiment: Anabolic activity in orchidectomized rat at 3.0 mg/kg, po measured as increase in levator ani muscle weight to eugonadal level; assay type: functional, organism-based; parameters: dose 3 mg/kg
Estrogen receptor = target: T2, Estrogen receptor (Homo sapiens, UniProt P03372)
T2 sequence (P03372 whole entry): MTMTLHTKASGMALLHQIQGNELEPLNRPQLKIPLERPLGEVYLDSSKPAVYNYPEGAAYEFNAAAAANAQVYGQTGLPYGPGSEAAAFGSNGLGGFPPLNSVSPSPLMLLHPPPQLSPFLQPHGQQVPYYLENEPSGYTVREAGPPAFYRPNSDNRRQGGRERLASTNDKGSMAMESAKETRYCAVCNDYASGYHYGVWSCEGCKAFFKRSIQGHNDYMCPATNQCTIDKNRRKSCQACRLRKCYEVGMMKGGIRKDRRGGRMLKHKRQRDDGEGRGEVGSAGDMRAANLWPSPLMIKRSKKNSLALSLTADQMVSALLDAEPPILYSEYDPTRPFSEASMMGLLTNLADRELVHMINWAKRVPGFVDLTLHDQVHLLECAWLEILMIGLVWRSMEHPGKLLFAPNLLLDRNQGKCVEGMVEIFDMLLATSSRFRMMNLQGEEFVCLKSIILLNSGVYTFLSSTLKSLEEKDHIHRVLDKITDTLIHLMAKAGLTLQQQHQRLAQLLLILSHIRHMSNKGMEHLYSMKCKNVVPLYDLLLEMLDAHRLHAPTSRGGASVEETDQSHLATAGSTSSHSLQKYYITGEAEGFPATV
Description: Binding affinity to estrogen receptor

Progesterone receptor = target: T3, Progesterone receptor (Homo sapiens, UniProt P06401)
T3 sequence (P06401 whole entry): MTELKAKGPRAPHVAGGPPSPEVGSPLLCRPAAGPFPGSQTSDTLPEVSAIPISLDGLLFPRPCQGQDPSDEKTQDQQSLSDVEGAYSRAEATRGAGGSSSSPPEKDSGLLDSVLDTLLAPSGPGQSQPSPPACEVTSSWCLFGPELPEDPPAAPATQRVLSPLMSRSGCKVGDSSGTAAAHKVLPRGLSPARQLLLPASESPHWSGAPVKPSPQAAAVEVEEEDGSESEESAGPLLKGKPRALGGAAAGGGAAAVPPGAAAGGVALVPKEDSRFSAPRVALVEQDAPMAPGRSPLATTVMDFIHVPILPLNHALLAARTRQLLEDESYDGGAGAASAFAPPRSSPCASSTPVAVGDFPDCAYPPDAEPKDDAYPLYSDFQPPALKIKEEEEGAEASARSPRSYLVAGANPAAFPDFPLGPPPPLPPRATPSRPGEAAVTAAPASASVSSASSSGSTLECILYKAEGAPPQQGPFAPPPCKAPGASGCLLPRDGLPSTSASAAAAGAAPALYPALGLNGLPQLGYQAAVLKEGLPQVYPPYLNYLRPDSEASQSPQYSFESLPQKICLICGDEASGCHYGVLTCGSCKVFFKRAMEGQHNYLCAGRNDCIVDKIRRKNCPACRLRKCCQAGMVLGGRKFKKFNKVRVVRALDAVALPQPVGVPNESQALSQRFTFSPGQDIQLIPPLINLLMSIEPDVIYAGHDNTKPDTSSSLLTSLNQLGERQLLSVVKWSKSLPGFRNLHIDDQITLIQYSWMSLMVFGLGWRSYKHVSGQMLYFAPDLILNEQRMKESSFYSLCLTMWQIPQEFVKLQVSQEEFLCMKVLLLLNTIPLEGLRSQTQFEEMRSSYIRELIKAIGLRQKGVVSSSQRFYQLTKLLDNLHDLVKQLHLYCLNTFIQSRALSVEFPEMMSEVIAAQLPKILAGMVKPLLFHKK
Description: Binding affinity to progesterone receptor

[6] = target: T4, Mineralocorticoid receptor (Homo sapiens, UniProt P08235); experiment: Binding affinity to mineralocorticoid receptor
T4 sequence (P08235 whole entry): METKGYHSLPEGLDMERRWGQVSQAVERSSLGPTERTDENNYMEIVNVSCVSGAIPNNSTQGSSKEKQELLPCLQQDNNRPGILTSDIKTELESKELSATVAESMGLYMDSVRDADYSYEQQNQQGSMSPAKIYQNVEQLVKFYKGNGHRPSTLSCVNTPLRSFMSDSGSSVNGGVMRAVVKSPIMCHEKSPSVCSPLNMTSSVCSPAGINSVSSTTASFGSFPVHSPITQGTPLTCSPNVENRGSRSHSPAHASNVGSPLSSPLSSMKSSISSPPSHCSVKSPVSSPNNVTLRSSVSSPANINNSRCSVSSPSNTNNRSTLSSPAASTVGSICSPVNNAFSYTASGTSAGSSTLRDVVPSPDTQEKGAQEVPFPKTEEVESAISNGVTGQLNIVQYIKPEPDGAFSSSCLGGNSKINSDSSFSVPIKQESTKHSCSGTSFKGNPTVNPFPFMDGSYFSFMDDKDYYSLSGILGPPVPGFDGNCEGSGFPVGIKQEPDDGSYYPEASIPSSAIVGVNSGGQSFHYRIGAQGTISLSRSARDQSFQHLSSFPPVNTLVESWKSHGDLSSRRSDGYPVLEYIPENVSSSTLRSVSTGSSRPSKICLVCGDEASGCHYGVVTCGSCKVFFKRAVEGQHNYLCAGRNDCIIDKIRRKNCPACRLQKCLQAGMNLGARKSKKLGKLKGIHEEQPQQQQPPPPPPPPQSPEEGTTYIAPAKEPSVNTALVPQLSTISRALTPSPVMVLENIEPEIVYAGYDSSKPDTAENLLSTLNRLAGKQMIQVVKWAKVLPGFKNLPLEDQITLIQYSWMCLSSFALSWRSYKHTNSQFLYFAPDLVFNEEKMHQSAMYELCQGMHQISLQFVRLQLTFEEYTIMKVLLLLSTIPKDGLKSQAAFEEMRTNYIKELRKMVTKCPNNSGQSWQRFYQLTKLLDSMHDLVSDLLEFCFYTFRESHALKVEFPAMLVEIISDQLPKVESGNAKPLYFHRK

Rattus norvegicus [7] = experiment: Androgenic activity in orchidectomized rat at 100 mg/kg, po measured as increase in ventral prostate weight to intact level; assay type: functional, organism-based; parameters: dose 100 mg/kg; conditions: Prostate gland
Glucocorticoid receptor = target: T5, Glucocorticoid receptor (Homo sapiens, UniProt P04150); experiment: Binding affinity to glucocorticoid receptor
T5 sequence (P04150 whole entry): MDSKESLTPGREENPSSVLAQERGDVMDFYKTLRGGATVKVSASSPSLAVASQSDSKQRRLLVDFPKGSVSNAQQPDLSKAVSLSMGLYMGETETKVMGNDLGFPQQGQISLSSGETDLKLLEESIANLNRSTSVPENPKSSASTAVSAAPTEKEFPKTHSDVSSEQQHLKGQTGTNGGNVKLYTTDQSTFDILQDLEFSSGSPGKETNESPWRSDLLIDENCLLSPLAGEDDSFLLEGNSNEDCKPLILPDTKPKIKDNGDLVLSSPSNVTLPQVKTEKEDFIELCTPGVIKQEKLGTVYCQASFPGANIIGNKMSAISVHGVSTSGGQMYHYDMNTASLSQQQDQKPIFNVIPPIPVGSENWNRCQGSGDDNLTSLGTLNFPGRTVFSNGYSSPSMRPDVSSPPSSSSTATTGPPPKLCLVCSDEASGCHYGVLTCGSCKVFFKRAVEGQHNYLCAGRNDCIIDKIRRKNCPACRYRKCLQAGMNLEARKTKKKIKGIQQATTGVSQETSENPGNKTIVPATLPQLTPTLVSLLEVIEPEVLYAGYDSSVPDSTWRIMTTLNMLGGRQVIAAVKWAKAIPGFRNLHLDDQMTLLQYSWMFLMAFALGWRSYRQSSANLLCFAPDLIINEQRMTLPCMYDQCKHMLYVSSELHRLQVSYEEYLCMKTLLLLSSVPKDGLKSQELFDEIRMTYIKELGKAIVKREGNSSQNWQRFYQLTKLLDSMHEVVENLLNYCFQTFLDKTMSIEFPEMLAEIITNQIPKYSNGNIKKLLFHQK

Rattus norvegicus [8] = experiment: Anabolic activity in orchidectomized rat at 2.0 mg/kg, sc measured as increase in levator ani muscle weight to eugonadal level; assay type: functional, organism-based; parameters: dose 2 mg/kg
Rattus norvegicus [9] = experiment: Androgenic activity in orchidectomized rat at 2.0 mg/kg, sc measured as increase in ventral prostate weight to eugonadal level; assay type: functional, organism-based; parameters: dose 2 mg/kg; conditions: Prostate gland

Oc1cc(C(F)(F)F)c2cc(N(CC3CC3)CC(F)(F)F)ccc2n1
Ki (Androgen receptor [1]): 7.1 nM | IC50 (Androgen receptor [2]): > 10000 nM | EC50 (Androgen receptor [3]): 2.8 nM

O=c1cc(C(F)(F)F)c2cc(N(CC(F)(F)F)CC(F)(F)F)ccc2[nH]1
Activity (Rattus norvegicus [4]): 150% | Activity (Rattus norvegicus [5]): Active | Ki (Estrogen receptor): > 1000 nM | Ki (Progesterone receptor): > 1000 nM | Ki [6]: > 1000 nM | Activity (Rattus norvegicus [7]): Active | Ki (Glucocorticoid receptor): > 1000 nM

C[C@]12CC[C@H]3[C@@H](CCC4=CC(=O)CC[C@@]43C)[C@@H]1CC[C@@H]2O
Activity (Rattus norvegicus [8]): Active | Activity (Rattus norvegicus [9]): Active
